# Measured values published in ChEMBL document CHEMBL3734736, “A selective delta opioid receptor antagonist based on a stilbene core” (Bioorg Med Chem Lett, 2015).
# pEC50: −log10 of the molar value. Activity calls are given as the source filed them. The rule behind the calls is not given here.
# What was measured:
# [1] = target: Kappa-type opioid receptor (Homo sapiens) (UniProt P41145); assay: Antagonist activity at human kappa opioid receptor over-expressed in CHO cell membrane assessed as inhibition of U69,593-induced [35S]GTPgammaS binding at 10 uM after 1 hr by scintillation counting method; assay type: functional, cell membranes
# Kappa-type opioid receptor (Homo sapiens), sequence (P41145 whole entry): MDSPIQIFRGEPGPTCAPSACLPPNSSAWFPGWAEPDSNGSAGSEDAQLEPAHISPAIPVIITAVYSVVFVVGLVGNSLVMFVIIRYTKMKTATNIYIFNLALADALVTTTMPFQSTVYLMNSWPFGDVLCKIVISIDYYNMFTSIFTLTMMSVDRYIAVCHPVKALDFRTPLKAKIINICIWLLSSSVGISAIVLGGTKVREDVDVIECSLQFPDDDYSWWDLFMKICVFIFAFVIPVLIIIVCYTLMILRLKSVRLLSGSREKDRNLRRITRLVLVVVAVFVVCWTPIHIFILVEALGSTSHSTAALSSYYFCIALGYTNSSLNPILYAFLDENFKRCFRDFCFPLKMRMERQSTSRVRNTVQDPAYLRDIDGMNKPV
# [2] = target: T1, Delta-type opioid receptor (Homo sapiens, UniProt P41143); assay: Agonist activity at human delta opioid receptor over-expressed in CHO cell membrane after 1 hr by [35S]GTPgammaS binding assay; assay type: functional, cell membranes
# T1 sequence (P41143 whole entry): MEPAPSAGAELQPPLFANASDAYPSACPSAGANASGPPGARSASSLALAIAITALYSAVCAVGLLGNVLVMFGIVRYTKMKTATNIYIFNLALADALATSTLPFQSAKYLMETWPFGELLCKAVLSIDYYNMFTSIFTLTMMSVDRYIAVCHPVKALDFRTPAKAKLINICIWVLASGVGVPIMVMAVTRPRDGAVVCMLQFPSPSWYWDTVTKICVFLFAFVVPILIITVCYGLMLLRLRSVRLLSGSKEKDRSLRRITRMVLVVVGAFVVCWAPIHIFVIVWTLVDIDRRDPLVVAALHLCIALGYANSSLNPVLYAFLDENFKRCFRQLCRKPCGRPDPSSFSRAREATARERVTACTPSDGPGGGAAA
# [3] = target: T1, Delta-type opioid receptor; assay: Antagonist activity at human delta opioid receptor over-expressed in CHO cell membrane assessed as inhibition of DPDPE-induced [35S]GTPgammaS binding at 10 uM after 1 hr by scintillation counting method; assay type: functional, cell membranes
# [4] = target: Kappa-type opioid receptor (Homo sapiens) (UniProt P41145); assay: Agonist activity at human kappa opioid receptor over-expressed in CHO cell membrane after 1 hr by [35S]GTPgammaS binding assay; assay type: functional, cell membranes
# CHO [5] = assay: Selectivity ratio, ratio of Ke for human kappa opioid receptor over-expressed in CHO cell membrane to Ke for human delta opioid receptor over-expressed in CHO cell membrane; assay type: cell-based
# [6] = target: Mu-type opioid receptor (Homo sapiens) (UniProt P35372); assay: Agonist activity at human mu opioid receptor over-expressed in CHO cell membrane after 1 hr by [35S]GTPgammaS binding assay; assay type: functional, cell membranes
# Mu-type opioid receptor (Homo sapiens), sequence (P35372 whole entry): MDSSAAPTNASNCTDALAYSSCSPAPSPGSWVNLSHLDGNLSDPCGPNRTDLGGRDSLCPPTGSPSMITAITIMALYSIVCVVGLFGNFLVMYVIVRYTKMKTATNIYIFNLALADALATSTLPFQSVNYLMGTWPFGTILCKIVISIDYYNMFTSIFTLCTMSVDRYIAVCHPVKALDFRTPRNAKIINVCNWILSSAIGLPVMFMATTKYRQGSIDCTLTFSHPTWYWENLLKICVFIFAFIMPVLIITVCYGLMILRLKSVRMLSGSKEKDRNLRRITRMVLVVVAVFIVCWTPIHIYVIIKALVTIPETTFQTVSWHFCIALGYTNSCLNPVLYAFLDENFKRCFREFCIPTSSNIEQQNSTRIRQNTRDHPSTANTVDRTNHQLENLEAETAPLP
# [7] = target: Mu-type opioid receptor (Homo sapiens) (UniProt P35372); assay: Antagonist activity at human mu opioid receptor over-expressed in CHO cell membrane assessed as inhibition of DAMGO-induced [35S]GTPgammaS binding at 10 uM after 1 hr by scintillation counting method; assay type: functional, cell membranes
# CHO [8] = assay: Selectivity ratio, ratio of Ke for human mu opioid receptor over-expressed in CHO cell membrane to Ke for human delta opioid receptor over-expressed in CHO cell membrane; assay type: cell-based
smiles,measurement,setting,value
COc1cc(/C=C/c2ccc(O)c(O)c2CC=C(C)C)c(C/C=C(\C)CCC=C(C)C)c(OC)c1,Ke,[1],> 10 µM
same,pEC50,[2],5.18
same,Ke,[3],0.025 µM
same,Activity,[4],inactive
same,Ratio Ke,CHO [5],> 400
same,Activity,[6],inactive
same,Ke,[7],> 10 µM
same,Ratio Ke,CHO [8],> 400
